This test concerns the target T1, factor D (Homo sapiens, UniProt P00746).
T1 construct: made in house; host or cells: E. coli
Description: factor D inhibition assay of Biological Example 2. The class given is biochemical.
T1 sequence (P00746 26-253): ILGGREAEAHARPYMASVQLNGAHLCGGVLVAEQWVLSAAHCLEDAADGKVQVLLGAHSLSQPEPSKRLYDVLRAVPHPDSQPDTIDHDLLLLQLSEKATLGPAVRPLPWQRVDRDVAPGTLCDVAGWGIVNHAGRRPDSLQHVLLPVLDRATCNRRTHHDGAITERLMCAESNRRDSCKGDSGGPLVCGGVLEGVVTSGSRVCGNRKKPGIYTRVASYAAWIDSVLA
In turn, `N[C@H](CO)c1cccc(-c2cc(C(=O)Nc3ccccc3CC(=O)O)cc(-c3cccc([C@H](N)CO)c3)c2)c1` [Example 82-B, 2-(2-(3,3″-bis((S)-1-amino-2-hydroxyethyl)-[1,1′:3′,1″-terphenyl]-5′-ylcarboxamido)phenyl)acetic acid] registered an IC50 of 19 nM.
For `Cc1c(COc2ccccc2CC(=O)O)cccc1-c1cccc([C@H](N)CO)c1` [Example 116-L], the IC50 was 10300 nM.
The compound `C[C@@H](N)c1cccc(-c2cc(NCC3CC3)cc(N(C)Cc3ccccc3CC(=O)O)c2)c1F` [Example 216-AA] yielded an IC50 of 32 nM.
In turn, `C[C@@H](N)c1cccc(-c2cc(COc3ccccc3CC(=O)O)cc(N3CCCC3)c2)c1F` [Example 216-V] gave an IC50 of 9 nM.
In the case of `N[C@H](CO)c1cccc(-c2ccc3c(c2)C(Oc2ccccc2CC(=O)O)CC3)c1` (mixture of isomers) [Example 172, (±)-2-(2-((6-(3-((S)-1-Amino-2-hydroxyethyl)phenyl)-2,3-dihydro-1H-inden-1-yl)oxy)phenyl)acetic acid], the IC50 amounted to 5880 nM.
Turning to `CCC[C@@H](N)c1cccc(-c2cccc(COc3c(F)cccc3CC(=O)O)c2)c1` [Example 194, (R)-2-(2-((3′-(1-Aminobutyl)-[1,1′-biphenyl]-3-yl)methoxy)-3-fluorophenyl)acetic acid], inhibition was half-maximal at 263 nM (IC50).
`C[C@@H](N)c1cccc(-c2cc(CCC3CCCN3C)cc(COc3ccccc3CC(=O)O)c2)c1F` (stereo partly drawn) [Example 240-B, 2-(2-((3′-((R)-1-aminoethyl)-2′-fluoro-5-(2-(1-methylpyrrolidin-2-yl)ethyl)-[1,1′-biphenyl]-3-yl)methoxy)phenyl)acetic acid] registered an IC50 of 110 nM.
`NCc1cccc(-c2ccc3c(c2)C(Oc2ccccc2CC(=O)O)CCO3)c1` (single isomer, unassigned) [177 b) (tr = 8.8 min), (−) or (+)-2-(2-((6-(3-(aminomethyl)phenyl)chroman-4-yl)oxy)phenyl)acetic acid] returned an IC50 of 180 nM.
In turn, `C[C@@H](N)c1cccc(-c2cc(COc3ccccc3CC(=O)O)cc(N(C)C[C@H]3CCCO3)c2)c1F` [Example 216-I] came in with a 50% inhibitory concentration (IC50) of 13 nM.
`C[C@@H](N)c1cccc(-c2cc(COc3ccccc3CC(=O)O)cc(OCC3CC3)c2)c1F` [Example 148, (R)-2-(2-((3′-(1-Aminoethyl)-5-(cyclopropylmethoxy)-2′-fluoro-[1,1′-biphenyl]-3-yl)methoxy)phenyl)acetic acid]: the 50% inhibitory concentration (IC50) was 9 nM.
`NCc1cccc(-c2cc(COc3ccccc3CC(=O)O)cc(-c3ccn[nH]3)c2)c1` [Example 209-B] displayed a half-maximal inhibitory concentration (IC50) of 4 nM.
In the case of `CC(O)c1cc(COc2ccccc2CC(=O)O)cc(-c2cccc([C@@H](C)N)c2)c1` (some centres unmarked) [Example 116-F], the midpoint of inhibition, the IC50, lay at 5 nM.
The compound `CC[C@@H](N)c1cccc(-c2cccc(COc3ccccc3CC(=O)O)c2)c1` [Example 190-C] had an IC50 of 1210 nM.
In the case of `N[C@H](CO)c1cccc(-c2cc(COc3ccccc3CC(=O)O)cc(C(O)C(F)(F)F)c2)c1` (mixture of isomers) [116-G a), 2-(2-((3′-((S)-1-amino-2-hydroxyethyl)-5-(2,2,2-trifluoro-1-hydroxyethyl)-[1,1′-biphenyl]-3-yl)methoxy)phenyl)acetic acid], half-maximal inhibition (IC50) was put at 6 nM.
`COCCNc1cc(COc2ccccc2CC(=O)O)cc(-c2cccc([C@@H](C)N)c2F)c1` [Example 223-B, (R)-2-(2-((3′-(1-aminoethyl)-2′-fluoro-5-((2-methoxyethyl)amino)-[1,1′-biphenyl]-3-yl)methoxy)phenyl)acetic acid] came in with an IC50 of 9 nM.
Compound `CCOC(=O)Cc1ccccc1OCc1cc(NC[C@H]2CCCO2)cc(-c2cccc([C@@H](C)N)c2F)c1` [Example 249, Ethyl 2-(2-((3′-((R)-1-aminoethyl)-2′-fluoro-5-((((R)-tetrahydrofuran-2-yl)methyl)amino)-[1,1′-biphenyl]-3-yl)methoxy)phenyl)acetate] displayed an IC50 of 26900 nM.
Next, `NCc1nccc(-c2cccc(COc3ccccc3CC(=O)O)c2)c1F` [Example 142-I]: 2 nM; `COc1ccc(C(=O)Nc2ccccc2CC(=O)O)cc1-c1cc(F)cc(CN)c1` [Example 9]: 71 nM.
`C[C@@H](N)c1cccc(-c2cc(NC[C@@H]3CCCO3)cc(N(C)Cc3ccccc3CC(=O)O)c2)c1F` [Example 216-AB]: the IC50 worked out at 55 nM.
Compound `NCc1cccc(-c2csc(C(=O)Nc3ccccc3CC(=O)O)n2)c1` [Example 26-B, 2-(2-(4-(3-(Aminomethyl)phenyl)thiazole-2-carboxamido)phenyl)acetic acid] had an IC50 of 94 nM.
In the case of `NCc1cc(F)cc(-c2csc(C(=O)Nc3ccccc3CC(=O)O)n2)c1` [Example 28-B, 2-(2-(4-(3-(aminomethyl)-5-fluorophenyl)thiazole-2-carboxamido)phenyl)acetic acid], the IC50 was found to be 57 nM.
Compound `COC(=O)Cc1ccccc1NC(=O)c1cccc(-c2cc(CN)ccc2F)c1` [Example 4-A, Methyl 2-(2-(5′-(aminomethyl)-2′-fluoro-[1,1′-biphenyl]-3-ylcarboxamido)phenyl)acetate] returned an IC50 of 33100 nM.
Compound `NCc1cccc(-c2cc(COc3ccccc3CC(=O)O)cc(NCC3CC3)c2)c1` [Example 139, 2-(2-((3′-(Aminomethyl)-5-((cyclopropylmethyl)amino)-[1,1′-biphenyl]-3-yl)methoxy)phenyl)acetic acid] returned an IC50 of 22 nM.
In turn, `C[C@@H](N)c1cccc(-c2cc(COc3ccccc3CC(=O)O)cc(OCc3cncn3C)c2)c1F` [Example 214-Q] came in with a 50% inhibitory concentration (IC50) of 10 nM.
`NCc1cc(F)cc(-c2cc(OCc3ncccn3)cc(C(=O)Nc3ccccc3CC(=O)O)c2)c1` [Example 68, 2-(2-(3′-(Aminomethyl)-5′-fluoro-5-(pyrimidin-2-ylmethoxy)-[1,1′-biphenyl]-3-ylcarboxamido)phenyl)acetic acid]: the IC50 amounted to 20 nM.
`Cc1ccc(COc2ccccc2CC(=O)O)cc1-c1cccc([C@H](N)CO)c1` [Example 116-K] yielded an IC50 of 108 nM.
For `C[C@@H](N)c1cccc(-c2cc(COc3ccccc3CC(=O)O)cc(OCC3CCCC3)c2)c1F` [Example 214-H], the IC50 was determined as 700 nM.
The figure for `CCC[C@@H](N)c1cc(-c2cccc(COc3ccccc3CC(=O)O)c2)ccn1` [Example 196-B] is 206 nM; for `C[C@@H]1CN(Cc2cc(COc3ccccc3CC(=O)O)cc(-c3cccc([C@@H](C)N)c3F)c2)C[C@H](C)O1` [Example 216-AH] it is 90 nM; for `NCc1cccc(-c2cc(NCc3ccccc3)cc(C(=O)Nc3ccccc3CC(=O)O)n2)c1` [Example 53, 2-(2-(6-(3-(Aminomethyl)phenyl)-4-(benzylamino)picolinamido)phenyl)acetic acid] it is 3 nM.
In turn, `COc1c(C(=O)Nc2ccccc2CC(=O)O)cccc1-c1cc(F)cc(CN)c1` [Example 93-B, 2-(2-(3′-(Aminomethyl)-5′-fluoro-2-methoxy-[1,1′-biphenyl]-3-ylcarboxamido)phenyl)acetic acid] gave an IC50 of 6720 nM.
The compound `COCCOc1cc(C(=O)Nc2ccccc2CC(=O)O)cc(-c2cc(F)cc(CN)c2)c1` [Example 73-C, 2-(2-(3′-(Aminomethyl)-5′-fluoro-5-(2-methoxyethoxy)-[1,1′-biphenyl]-3-ylcarboxamido)phenyl)acetic acid] gave an IC50 of 22 nM.
Regarding `NCc1cccc(-c2cc(OCc3ccncc3)cc(C(=O)Nc3ccccc3CC(=O)O)c2)c1` [Example 62, 2-(2-(3′-(Aminomethyl)-5-(pyridin-4-ylmethoxy)-[1,1′-biphenyl]-3-ylcarboxamido)phenyl)acetic acid], the midpoint of inhibition, the IC50, lay at 54 nM.
The figure for `Cc1c(CN)cccc1-c1cccc(COc2ccccc2CC(=O)O)c1` [Example 143-C, 2-(2-((3′-(Aminomethyl)-2′-methyl-[1,1′-biphenyl]-3-yl)methoxy)phenyl)acetic acid] is 132 nM; for `N[C@H](CO)c1cccc(-c2ccc(C(F)(F)F)c(COc3ccccc3CC(=O)O)c2)c1` [Example 167, (S)-2-(2-((3′-(1-Amino-2-hydroxyethyl)-4-(trifluoromethyl)-[1,1′-biphenyl]-3-yl)methoxy)phenyl)acetic acid] it is 30 nM.
`CCC[C@@H](N)c1cccc(-c2cccc(COc3ccccc3CC(=O)O)c2)n1` [Example 196-A] gave an IC50 of 11300 nM.
Consider `Cc1ccc(COc2ccccc2CC(=O)O)cc1-c1cccc([C@@H](C)N)c1` [Example 116-M], for which the IC50 is 1230 nM.
Next, `Cc1ccc(CC(=O)O)c(NC(=O)c2cccc(-c3cc(F)cc(CN)c3)n2)c1` [Example 21-M]: 22 nM; `N[C@H](CO)c1cc(Cl)cc(-c2cccc(COc3ccccc3CC(=O)O)c2)c1` [Example 277-C, (S)-2-(2-((3′-(1-Amino-2-hydroxyethyl)-5′-chloro-[1,1′-biphenyl]-3-yl)methoxy)phenyl)acetic acid]: 190 nM; `C[C@@H](N)c1cccc(-c2cccc(COc3ccccc3CC(=O)O)c2)c1Cl` [Example 142-A]: 346 nM.
As for `NCc1cc(F)cc(-c2cccc(C(=O)Nc3cccc(Cl)c3CC(=O)O)c2)c1` [Example 21-F], the IC50 amounted to 3120 nM.
With `C[C@H](N)c1cccc(-c2cc(COc3ccccc3CC(=O)O)cc(OC[C@H]3CCCO3)c2)c1F` [Example 233, 2-(2-((3′-((S)-1-aminoethyl)-2′-fluoro-5-(((R)-tetrahydrofuran-2-yl)methoxy)-[1,1′-biphenyl]-3-yl)methoxy)phenyl)acetic acid], 4 nM corresponded to half-maximal inhibition (IC50).
Consider `C[C@@H](N)c1cccc(-c2cc(COc3ccccc3CC(=O)O)cc(NCC3CCCO3)c2F)c1F` (stereo partly drawn) [Example 222, 2-(2-((3′-((R)-1-aminoethyl)-2′,6-difluoro-5-(((tetrahydrofuran-2-yl)methyl)amino)-[1,1′-biphenyl]-3-yl)methoxy)phenyl)acetic acid], for which half-maximal inhibition (IC50) was put at 16 nM.
As to `COC[C@@H](N)c1cccc(-c2ccnc(COc3ccccc3CC(=O)O)c2)c1` [Example 184, (S)-2-(2-((4-(3-(1-amino-2-methoxyethyl)phenyl)pyridin-2-yl)methoxy)phenyl)acetic acid], the IC50 was 436 nM.

What is called IC50 is the concentration that inhibits the measured activity by half. A lower IC50 goes with higher potency.

For the origin of these results see patent US20160145247A1, “Aminomethyl-Biaryl Derivatives Complement Factor D inhibitors and uses thereof” (NOVARTIS AG, priority 2013, published 2016).
